# Results: PubChem BioAssay AID1259411 (Chemical Carcinogenesis Research Information System (CCRIS), 2018)
# The source made the active and inactive calls. How the calls were made is not given here.
# Test system: rodent carcinogenicity bioassays, tumor incidence
# Test: CCRIS carcinogenicity studies
# In short: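 NCI-built, expert-reviewed records of carcinogenicity and related test outcomes (mutagenicity, tumor promotion/inhibition) compiled from published and report sources, historical span 1985-2011, not updated.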
compound,measurement,setting,value
O=[N+]([O-])c1cccc2cccnc12,carcinogen call,"Species: RAT, Strain/Sex: F344/MALE,FEMALE, Route: ORAL, Dose: 0.1% IN DIET FOR 2 YR, Tumor Site: Type of Lesion: FORESTOMACH: SQUAMOUS CELL PAPILLOMA, CARCINOMA",active; positive
CC(C)CN(N=O)C(N)=O,carcinogen call,"Species: RAT, Strain/Sex: DONRYU/FEMALE, Route: ORAL, Dose: 100, 200, 400 PPM IN DRINKING WATER, Dose: 100, 200, 400 PPM IN DRINKING WATER, Tumor Site: Type of Lesion: DUODENUM: BENIGN HEMANGIOENDOTHELIOMA, MALIGNANT HEMANGIOENDOTHELIOMA",active; positive
OCc1c2ccccc2cc2c1ccc1ccccc12,carcinogen call,"Species: RAT, Strain/Sex: SPRAGUE-DAWLEY/FEMALE, Route: SUBCUTANEOUS, Dose: 0, 0.2 UMOL IN SESAME OIL:DMSO (9:1) 3/WK FOR 20 DOSES (STUDY DURATION: 52 WK), Tumor Site: Type of Lesion: INJECTION SITE: SARCOMA",active; positive
CCCCCCCCCCCCCCN(C)N=O,carcinogen call,"Species: RAT, Strain/Sex: F344/MALE, Route: GAVAGE, Dose: 0, 140 MG/ML IN CORN OIL 2/WK FOR 30 WK, STUDY DURATION: 110 WK, Dose: 0, 140 MG/ML IN CORN OIL 2/WK FOR 30 WK, STUDY DURATION: 110 WK, Tumor Site: Type of Lesion: BLADDER",active; positive
O=[N+]([O-])c1ccc2ccc3cccc4c5ccccc5c1c2c34,carcinogen call,"Species: MOUSE, Strain/Sex: B6C3F1/MALE, Route: INTRAPERITONEAL, Dose: 0, 400 NMOL IN 35 µL DMSO ON DAYS 1 (1/7 TOTAL DOSE), 8 (2/7 TOTAL DOSE), AND 15 (4/7 TOTAL DOSE) AFTER BIRTH (STUDY DUR",inactive; negative
OCC(Cl)(Cl)Cl,carcinogen call,"Species: MOUSE, Strain/Sex: B6C3F1/FEMALE, Route: INTRAPERITONEAL, Dose: 0, 1000 NMOL TOTAL DOSE, 1/3 AND 2/3 OF THE TOTAL DOSE ADMINISTERED AT 8 AND 15 DAYS OF AGE RESPECTIVELY, ANIMALS TERMIN",inactive; negative
same,carcinogen call,"Species: MOUSE, Strain/Sex: B6C3F1/FEMALE, Route: INTRAPERITONEAL, Dose: 0, 2000 NMOL TOTAL DOSE, 3/7 AND 4/7 OF THE TOTAL DOSE ADMINISTERED AT 8 AND 15 DAYS OF AGE RESPECTIVELY, ANIMALS TERMIN",inactive; negative
same,carcinogen call,"Species: MOUSE, Strain/Sex: B6C3F1/MALE, Route: INTRAPERITONEAL, Dose: 0, 1000 NMOL TOTAL DOSE, 1/3 AND 2/3 OF THE TOTAL DOSE ADMINISTERED AT 8 AND 15 DAYS OF AGE RESPECTIVELY, ANIMALS TERMIN",inactive; negative
same,carcinogen call,"Species: MOUSE, Strain/Sex: B6C3F1/MALE, Route: INTRAPERITONEAL, Dose: 0, 2000 NMOL TOTAL DOSE, 3/7 AND 4/7 OF THE TOTAL DOSE ADMINISTERED AT 8 AND 15 DAYS OF AGE RESPECTIVELY, ANIMALS TERMIN",inactive; negative
O=[N+]([O-])c1ccc(OC2CO2)cc1 (configuration not stated),carcinogen call,"Species: MOUSE, Strain/Sex: B6C3F1/MALE, Route: INTRAPERITONEAL, Dose: 0, 60 NMOL/G BW IN 10 µL TRIOCTANOIN ONCE (STUDY DURATION: 10 MO), Tumor Site: Type of Lesion: LIVER: HEPATOMA",active; positive
CC(C)=CC1C(C(=O)OC(C#N)c2cccc(Oc3ccccc3)c2)C1(C)C (configuration not stated),carcinogen call,"Species: Mouse, Strain/Sex: B6C3F1/Female (80/group), Route: Oral, Dose: 0, 100, 300, 1,000 ppm of 94.6-94.9% pure cyphenothrin for 104 wk, Dose: 0, 100, 300, 1,000 ppm of 94.6-94.9% pure cyphenothrin for 104 wk",inactive; negative (study details not presented by dpr evaluator)
same,carcinogen call,"Species: Mouse, Strain/Sex: B6C3F1/Male (80/group), Route: Oral, Dose: 0, 100, 300, 1,000 ppm of 94.6-94.9% pure cyphenothrin for 104 wk, Dose: 0, 100, 300, 1,000 ppm of 94.6-94.9% pure cyphenothrin for 104 wk",inactive; negative (study details not presented by dpr evaluator)
Oc1ccccc1,carcinogen call,"Species: MOUSE, Strain/Sex: B6C3F1/FEMALE, Route: ORAL, Dose: 0, 2500, 5000 PPM IN DIET, Dose: 0, 2500, 5000 PPM IN DIET",inactive; negative
same,carcinogen call,"Species: MOUSE, Strain/Sex: B6C3F1/MALE, Route: ORAL, Dose: 0, 2500, 5000 PPM IN DIET, Dose: 0, 2500, 5000 PPM IN DIET",inactive; negative
same,carcinogen call,"Species: RAT, Strain/Sex: F344/FEMALE, Route: ORAL, Dose: 0, 2500, 5000 PPM IN DIET, Dose: 0, 2500, 5000 PPM IN DIET",inactive; negative
same,carcinogen call,"Species: RAT, Strain/Sex: F344/MALE, Route: ORAL, Dose: 0, 2500, 5000 PPM IN DIET, Dose: 0, 2500, 5000 PPM IN DIET",inactive; negative
CCOP(=S)(OCC)Oc1cc(C)nc(C(C)C)n1,carcinogen call,"Species: MOUSE, Strain/Sex: B6C3F1/FEMALE, Route: ORAL, Dose: 0, 100, 200 PPM IN DIET, Dose: 0, 100, 200 PPM IN DIET",inactive; negative
same,carcinogen call,"Species: MOUSE, Strain/Sex: B6C3F1/MALE, Route: ORAL, Dose: 0, 100, 200 PPM IN DIET, Dose: 0, 100, 200 PPM IN DIET",inactive; negative
same,carcinogen call,"Species: RAT, Strain/Sex: F344/FEMALE, Route: ORAL, Dose: 0, 400, 800 PPM IN DIET, Dose: 0, 400, 800 PPM IN DIET",inactive; negative
same,carcinogen call,"Species: RAT, Strain/Sex: F344/MALE, Route: ORAL, Dose: 0, 400, 800 PPM IN DIET, Dose: 0, 400, 800 PPM IN DIET",inactive; negative
CC1CC(=O)O1 (configuration not stated),carcinogen call,"Species: MOUSE, Route: DERMAL, Tumor Site: Type of Lesion: INTEGUMENTARY SYSTEM (SKIN)",active; positive
same,carcinogen call,"Species: MOUSE, Route: SUBCUTANEOUS, Tumor Site: Type of Lesion: INJECTION SITE",active; positive
same,carcinogen call,"Species: RAT, Route: GAVAGE, Tumor Site: Type of Lesion: FORESTOMACH",active; positive
same,carcinogen call,"Species: RAT, Route: SUBCUTANEOUS, Tumor Site: Type of Lesion: INJECTION SITE",active; positive
COc1cccc2c1cc([N+](=O)[O-])c1c(C(=O)O)cc3c(c12)OCO3,carcinogen call,"Species: RAT, Strain/Sex: SPRAGUE-DAWLEY/FEMALE, Route: ORAL, GAVAGE, Dose: 50 MG/KG BW/D FOR 3 D (STUDY DURATION: 6 MO), Tumor Site: Type of Lesion: KIDNEY: TUMORS, 29% (THERE WERE 3 MESENCHYMAL TUMORS AND 1 RENAL ONCOCYTOMA IN 14 ANIMALS)",active; positive
O[C@@H]1[C@@H]2O[C@@H]2C=C[C@H]1O,carcinogen call,"Species: MOUSE, Strain/Sex: SWISS/FEMALE, Route: INTRAPERITONEAL, Dose: 0, 2.7, 13.7 UMOL ADMINISTERED AS 3 UNEQUAL DOSES (1/7, 2/7, AND 4/7 OF THE TOTAL DOSE) OVER A 2-WK PERIOD (STUDY DURATI, Dose: 0, 2.7, 13.7 UMOL ADMINISTERED AS 3 UNEQUAL DOSES (1/7, 2/7, AND 4/7 OF THE TOTAL DOSE) OVER A 2-WK PERIOD (STUDY DURATI, Tumor Site: Type of Lesion: LUNG: ADENOMA",active; positive
same,carcinogen call,"Species: MOUSE, Strain/Sex: SWISS/FEMALE, Route: INTRAPERITONEAL, Dose: 0, 13.7 UMOL ADMINISTERED AS 3 UNEQUAL DOSES (1/7, 2/7, AND 4/7 OF THE TOTAL DOSE) OVER A 2-WK PERIOD (STUDY DURATION: 2, Tumor Site: Type of Lesion: LUNG: ADENOMA",active; positive
same,carcinogen call,"Species: MOUSE, Strain/Sex: SWISS/MALE, Route: INTRAPERITONEAL, Dose: 0, 2.7, 13.7 UMOL ADMINISTERED AS 3 UNEQUAL DOSES (1/7, 2/7, AND 4/7 OF THE TOTAL DOSE) OVER A 2-WK PERIOD (STUDY DURATI, Dose: 0, 2.7, 13.7 UMOL ADMINISTERED AS 3 UNEQUAL DOSES (1/7, 2/7, AND 4/7 OF THE TOTAL DOSE) OVER A 2-WK PERIOD (STUDY DURATI, Tumor Site: Type of Lesion: LUNG: ADENOMA",active; positive
same,carcinogen call,"Species: MOUSE, Strain/Sex: SWISS/MALE, Route: INTRAPERITONEAL, Dose: 0, 13.7 UMOL ADMINISTERED AS 3 UNEQUAL DOSES (1/7, 2/7, AND 4/7 OF THE TOTAL DOSE) OVER A 2-WK PERIOD (STUDY DURATION: 2, Tumor Site: Type of Lesion: LUNG: ADENOMA",active; positive
Cn1c(=O)c2c(ncn2C)n(C)c1=O,carcinogen call,"Species: RAT, Strain/Sex: SPRAGUE-DAWLEY/FEMALE, Route: ORAL, Dose: 0, 200, 430, 930, 2000 MG/L IN DRINKING WATER FOR 24 MO (STUDY DURATION: 2 YR), Dose: 0, 200, 430, 930, 2000 MG/L IN DRINKING WATER FOR 24 MO (STUDY DURATION: 2 YR)",inactive; negative
same,carcinogen call,"Species: RAT, Strain/Sex: SPRAGUE-DAWLEY/MALE, Route: ORAL, Dose: 0, 200, 430, 930, 2000 MG/L IN DRINKING WATER FOR 24 MO (STUDY DURATION: 2 YR), Dose: 0, 200, 430, 930, 2000 MG/L IN DRINKING WATER FOR 24 MO (STUDY DURATION: 2 YR)",inactive; negative
same,carcinogen call,"Species: RAT, Strain/Sex: WISTAR/MALE,FEMALE, Route: ORAL, Dose: 0, 0.1, 0.2% SOLN. IN DRINKING WATER FOR 78 WK, Dose: 0, 0.1, 0.2% SOLN. IN DRINKING WATER FOR 78 WK",inactive; negative
